Laboratory results published in patent US9944646B2, “Bicyclic azaheterocyclobenzylamines as PI3K inhibitors” (Incyte Corporation, priority 2012, dated 2018).
Counter-ions that a name gives are not always drawn.

Key:
SUDHL-6 cells = experiment: SUDHL-6 Cell Proliferation Assay (Example B3); type: cell-based; conditions: 3 days, Cell Titer-GLO
Method: Example B3: SUDHL-6 Cell Proliferation Assay
SUDHL-6 cell line (diffuse large B cell lymphoma) was purchased from ATCC (Manassas, Va.) and maintained in the culture medium recommended (RPMI and 10% FBS). To measure the anti-proliferation activity of the compounds through ATP quantitation, the SUDHL-6 cells was plated with the culture medium (5000 cells/well/per 200 μl) into 96-well polystyrene clear black tissue culture plate (Greiner-bio-one through VWR, NJ) in the presence or absence of a concentration range of test compounds. After 3 days, Cell Titer-GLO Luminescent (Promega, Madison, Wis.) cell culture agent was added to each well for 10 minutes at room temperature to stabilize the luminescent signal. This determines the number of viable cells in culture based on quantitation of the ATP present, which signals the presence of metabolically active cells. Luminescence was measured with the TopCount 384 (Packard Bioscience through Perkin Elmer, Boston, Mass.). […] IC50 data for the Examples is presented in Table 4 determined by the assay of Example B3.

PI3Kδ = PI3Kδ (Homo sapiens (Human), UniProt O00329); experiment: PI3K Enzyme Assay (Example A2), [γ-33P]ATP filter plate; type: biochemical
How it was run: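 Recombinant PI3Kδ at 2.9 nM with 50 µM PIP2 in MOPS pH 6.7, MgCl2, DTT, CHAPS, 0.5% DMSO; started with 1000 μM ATP including [γ-33P]ATP, 180 min at room temperature. Phosphorylated product captured on PVDF filter plates and scintillation-counted; IC50 from percent-control activity vs log concentration.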

PI3Kδ (p110δ/p85α) = PI3Kδ (p110δ/p85α) (Homo sapiens (Human), UniProt O00329); experiment: PI3Kδ Scintillation Proximity Assay (Example A3); type: biochemical
Description: Example A3: PI3Kδ Scintillation Proximity Assay
[γ-^33P]ATP (10 mCi/mL) was purchased from Perkin-Elmer (Waltham, Mass.). Lipid kinase substrate, D-myo-Phosphatidylinositol 4,5-bisphosphate (PtdIns(4,5)P2)D (+)-sn-1,2-di-O-octanoylglyceryl, 3-O-phospho linked (PIP2), CAS 204858-53-7, was purchased from Echelon Biosciences (Salt Lake City, Utah). PI3Kδ (p110δ/p85α) was purchased from Millipore (Bedford, Mass.). ATP, MgCl2, DTT, EDTA, MOPS and CHAPS were purchased from Sigma-Aldrich (St. Louis, Mo.). Wheat Germ Agglutinin (WGA) YSi SPA Scintillation Beads was purchased from GE healthcare life sciences (Piscataway, N.J.).
The kinase reaction was conducted in polystyrene 384-well matrix white plate from Thermo Fisher Scientific in a final volume of 25 μL. Inhibitors were first diluted serially in DMSO and added to the plate wells before the addition of other reaction components. The final concentration of DMSO in the assay was 0.5%. The PI3K assays were carried out at room temperature in 20 mM MOPS, pH 6.7, 10 mM MgCl2, 5 mM DTT and CHAPS 0.03%. Reactions were initiated by the addition of ATP, the final reaction mixture consisted of 20 µM PIP2, 20 µM ATP, 0.2 μCi [γ-^33P]ATP, 4 nM PI3Kδ. Reactions were incubated for 210 min and terminated by the addition of 40 μL SPA beads suspended in quench buffer: 150 mM potassium phosphate pH 8.0, 20% glycerol. 25 mM EDTA, 400 µM ATP. The final concentration of SPA beads was 1.0 mg/mL. After the plate sealing, plates were shaken overnight at room temperature and centrifuged at 1800 rpm for 10 minutes, the radioactivity of the product was determined by scintillation counting on Topcount (Perkin-Elmer). IC50 determination was performed by fitting the curve of percent control activity versus the log of the inhibitor concentration using the GraphPad Prism 3.0 software. […] IC50 data for Examples 1-25 is presented in Table 3 for PI3Kδ as determined by the assay of Example A2 or A3 as indicated

Chain of PI3Kδ (O00329 whole entry): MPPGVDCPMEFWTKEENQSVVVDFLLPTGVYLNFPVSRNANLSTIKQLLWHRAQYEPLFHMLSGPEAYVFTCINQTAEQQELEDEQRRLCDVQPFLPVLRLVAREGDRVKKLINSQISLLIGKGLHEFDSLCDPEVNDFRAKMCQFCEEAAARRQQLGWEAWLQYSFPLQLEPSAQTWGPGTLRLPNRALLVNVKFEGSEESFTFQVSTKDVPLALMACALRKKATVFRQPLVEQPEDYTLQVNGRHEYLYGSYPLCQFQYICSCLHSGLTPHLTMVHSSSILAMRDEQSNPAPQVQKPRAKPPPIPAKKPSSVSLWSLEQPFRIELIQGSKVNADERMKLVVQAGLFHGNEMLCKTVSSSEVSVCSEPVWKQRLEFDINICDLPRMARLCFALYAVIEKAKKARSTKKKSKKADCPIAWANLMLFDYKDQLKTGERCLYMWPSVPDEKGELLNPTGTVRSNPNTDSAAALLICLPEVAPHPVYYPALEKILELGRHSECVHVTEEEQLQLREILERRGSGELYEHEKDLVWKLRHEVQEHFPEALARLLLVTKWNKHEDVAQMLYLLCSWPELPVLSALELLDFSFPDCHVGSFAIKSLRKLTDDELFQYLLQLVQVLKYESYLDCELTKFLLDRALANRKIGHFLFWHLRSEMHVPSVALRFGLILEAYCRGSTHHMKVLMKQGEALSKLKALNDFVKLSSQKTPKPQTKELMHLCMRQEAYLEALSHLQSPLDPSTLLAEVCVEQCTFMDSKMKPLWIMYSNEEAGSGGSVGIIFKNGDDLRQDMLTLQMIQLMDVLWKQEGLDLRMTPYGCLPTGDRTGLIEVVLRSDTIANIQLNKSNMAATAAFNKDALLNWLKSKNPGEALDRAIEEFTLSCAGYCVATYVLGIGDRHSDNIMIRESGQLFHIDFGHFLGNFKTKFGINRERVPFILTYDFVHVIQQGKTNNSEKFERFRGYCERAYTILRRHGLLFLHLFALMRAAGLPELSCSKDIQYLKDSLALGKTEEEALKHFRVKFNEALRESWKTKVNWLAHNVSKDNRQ
Chain of PI3Kδ (P27986 whole entry partner): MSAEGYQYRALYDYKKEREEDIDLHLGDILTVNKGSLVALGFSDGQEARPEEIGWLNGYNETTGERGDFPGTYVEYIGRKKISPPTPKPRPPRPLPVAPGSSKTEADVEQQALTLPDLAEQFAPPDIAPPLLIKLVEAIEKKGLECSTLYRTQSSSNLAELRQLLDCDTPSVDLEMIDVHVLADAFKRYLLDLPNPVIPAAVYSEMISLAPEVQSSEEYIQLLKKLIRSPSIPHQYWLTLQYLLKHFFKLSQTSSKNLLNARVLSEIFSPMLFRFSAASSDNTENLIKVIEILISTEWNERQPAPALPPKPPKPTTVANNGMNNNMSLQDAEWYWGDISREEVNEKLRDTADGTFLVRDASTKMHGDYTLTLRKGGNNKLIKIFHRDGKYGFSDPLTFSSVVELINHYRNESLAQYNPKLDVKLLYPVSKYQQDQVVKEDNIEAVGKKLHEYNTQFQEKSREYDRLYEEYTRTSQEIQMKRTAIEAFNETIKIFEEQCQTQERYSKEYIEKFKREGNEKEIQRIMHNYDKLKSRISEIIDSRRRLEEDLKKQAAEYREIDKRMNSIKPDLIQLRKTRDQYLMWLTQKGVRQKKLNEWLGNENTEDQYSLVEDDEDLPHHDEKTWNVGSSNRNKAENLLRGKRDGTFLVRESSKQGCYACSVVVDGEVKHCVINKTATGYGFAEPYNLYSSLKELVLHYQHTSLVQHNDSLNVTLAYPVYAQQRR
Chain of PI3Kδ (p110δ/p85α) (O00329 whole entry): as the sequence (O00329 whole entry) above
Chain of PI3Kδ (p110δ/p85α) (P27986 whole entry partner): as the sequence (P27986 whole entry partner) above

SMILES | IC50 (SUDHL-6 cells; Homo sapiens, SU-DHL-6, 72 h) [nM] | IC50 (PI3Kδ) [nM] | IC50 (SUDHL-6 cells) [nM] | IC50 (PI3Kδ (p110δ/p85α)) [nM]
CC(=O)N1CC(N2Cc3c(F)c(Cl)cc(C(C)n4nc(C)c5c(N)ncnc54)c3OC(C)C2)C1 (single isomer, unassigned) [Example 28, 1-{1-[4-(1-Acetylazetidin-3-yl)-7-chloro-6-fluoro-2-methyl-2,3,4,5-tetrahydro-1,4-benzoxazepin-9-yl]ethyl}-3-methyl-1H-pyrazolo[3,4-d]pyrimidin-4-amine] | ≤ 500 | ≤ 100 | – | –
CC(=O)N1CC(N2Cc3c(F)c(Cl)cc(C(C)n4nc(C)c5c(N)ncnc54)c3OC(C)C2)C1 (single isomer, unassigned) [Example 29, 1-{1-[4-(1-Acetylazetidin-3-yl)-7-chloro-6-fluoro-2-methyl-2,3,4,5-tetrahydro-1,4-benzoxazepin-9-yl]ethyl}-3-methyl-1H-pyrazolo[3,4-d]pyrimidin-4-amine] | – | ≤ 100 | ≤ 500 | –
CC(=O)N1CC(N2Cc3c(F)c(Cl)cc(C(C)n4nc(C)c5c(N)ncnc54)c3OC(C)C2)C1 (single isomer, unassigned) [Example 30, 1-{1-[4-(1-Acetylazetidin-3-yl)-7-chloro-6-fluoro-2-methyl-2,3,4,5-tetrahydro-1,4-benzoxazepin-9-yl]ethyl}-3-methyl-1H-pyrazolo[3,4-d]pyrimidin-4-amine] | – | ≤ 100 | ≤ 500 | –
CC(=O)N1CC(N2Cc3c(F)c(Cl)cc(C(C)n4nc(C)c5c(N)ncnc54)c3OC(C)C2)C1 (single isomer, unassigned) [Example 32, 1-{1-[4-(1-Acetylazetidin-3-yl)-7-chloro-6-fluoro-2-methyl-2,3,4,5-tetrahydro-1,4-benzoxazepin-9-yl]ethyl}-3-methyl-1H-pyrazolo[3,4-d]pyrimidin-4-amine] | – | ≤ 100 | ≤ 500 | –
Cc1nn(C(C)c2cc(Cl)c(F)c3c2OC(C)CN(S(C)(=O)=O)C3)c2ncnc(N)c12 (single isomer, unassigned) [Example 37, 1-{1-[7-Chloro-6-fluoro-2-methyl-4-(methylsulfonyl)-2,3,4,5-tetrahydro-1,4-benzoxazepin-9-yl]ethyl}-3-methyl-1H-pyrazolo[3,4-d]pyrimidin-4-amine] | ≤ 500 | ≤ 100 | – | –
Cc1nn(C(C)c2cc(Cl)c(F)c3c2OC(C)CN(S(C)(=O)=O)C3)c2ncnc(N)c12 (single isomer, unassigned) [Example 40, 1-{1-[7-Chloro-6-fluoro-2-methyl-4-(methylsulfonyl)-2,3,4,5-tetrahydro-1,4-benzoxazepin-9-yl]ethyl}-3-methyl-1H-pyrazolo[3,4-d]pyrimidin-4-amine] | – | ≤ 100 | ≤ 500 | –
CC(=O)N1CC(N2Cc3c(C#N)c(Cl)cc(C(C)n4nc(C)c5c(N)ncnc54)c3OC(C)C2)C1 (single isomer, unassigned) [Example 49, 4-(1-Acetylazetidin-3-yl)-9-[1-(4-amino-3-methyl-1H-pyrazolo[3,4-d]pyrimidin-1-yl)ethyl]-7-chloro-2-methyl-2,3,4,5-tetrahydro-1,4-benzoxazepine-6-carbonitrile] | – | ≤ 100 | ≤ 500 | –
Cc1nn(C(C)c2cc(Cl)c(C#N)c3c2OC(C)CN(CCO)C3)c2ncnc(N)c12 (single isomer, unassigned) [Example 62, 9-[1-(4-Amino-3-methyl-1H-pyrazolo[3,4-d]pyrimidin-1-yl)ethyl]-7-chloro-4-(2-hydroxyethyl)-2-methyl-2,3,4,5-tetrahydro-1,4-benzoxazepine-6-carbonitrile] | ≤ 500 | ≤ 100 | – | –
Cc1nn(C(C)c2cc(Cl)c(C#N)c3c2OC(C)CN(CCO)C3)c2ncnc(N)c12 (single isomer, unassigned) [Example 63, 9-[1-(4-Amino-3-methyl-1H-pyrazolo[3,4-d]pyrimidin-1-yl)ethyl]-7-chloro-4-(2-hydroxyethyl)-2-methyl-2,3,4,5-tetrahydro-1,4-benzoxazepine-6-carbonitrile] | – | ≤ 100 | ≤ 500 | –
Cc1noc(C)c1S(=O)(=O)N1CCOc2c(C(C)n3nc(C)c4c(N)ncnc43)cc(Cl)c(C)c2C1 (stereo not drawn) [Example 17, 1-(1-{7-Chloro-4-[(3,5-dimethylisoxazol-4-yl)sulfonyl]-6-methyl-2,3,4,5-tetrahydro-1,4-benzoxazepin-9-yl}yl)ethyl)-3-methyl-1H-pyrazolo[3,4-d]pyrimidin-4-amine trifluoroacetate] | – | – | – | ≤ 100
Cc1c(Cl)cc(C(C)n2nc(C)c3c(N)ncnc32)c2c1CN(S(=O)(=O)C1CC1)CCO2 (stereo not drawn) [Example 18, 1-{1-[7-Chloro-4-(cyclopropylsulfonyl)-6-methyl-2,3,4,5-tetrahydro-1,4-benzoxazepin-9-yl]ethyl}-3-methyl-1H-pyrazolo[3,4-d]pyrimidin-4-amine trifluoroacetate] | – | – | – | ≤ 100
CC(=O)N1CCOc2c(C(C)n3nc(C)c4c(N)ncnc43)cc(Cl)c(C)c2C1 (stereo not drawn) [Example 19, 1-[1-(4-Acetyl-7-chloro-6-methyl-2,3,4,5-tetrahydro-1,4-benzoxazepin-9-yl)ethyl]-3-methyl-1H-pyrazolo[3,4-d]pyrimidin-4-amine trifluoroacetate] | – | – | – | ≤ 100
CCC(=O)N1CCOc2c(C(C)n3nc(C)c4c(N)ncnc43)cc(Cl)c(C)c2C1 (stereo not drawn) [Example 20, 1-[1-(7-Chloro-6-methyl-4-propionyl-2,3,4,5-tetrahydro-1,4-benzoxazepin-9-yl)ethyl]-3-methyl-1H-pyrazolo[3,4-d]pyrimidin-4-amine trifluoroacetate] | – | – | – | ≤ 100
COCC(=O)N1CCOc2c(C(C)n3nc(C)c4c(N)ncnc43)cc(Cl)c(C)c2C1 (stereo not drawn) [Example 21, 1-{1-[7-Chloro-4-(methoxyacetyl)-6-methyl-2,3,4,5-tetrahydro-1,4-benzoxazepin-9-yl]ethyl}-3-methyl-1H-pyrazolo[3,4-d]pyrimidin-4-amine trifluoroacetate] | – | – | – | ≤ 100
Cc1c(Cl)cc(C(C)n2nc(C)c3c(N)ncnc32)c2c1CN(C(=O)C(C)C)CCO2 (stereo not drawn) [Example 22, 1-[1-(7-Chloro-4-isobutyryl-6-methyl-2,3,4,5-tetrahydro-1,4-benzoxazepin-9-yl)ethyl]-3-methyl-1H-pyrazolo[3,4-d]pyrimidin-4-amine trifluoroacetate] | – | – | – | ≤ 100
Cc1c(Cl)cc(C(C)n2nc(C)c3c(N)ncnc32)c2c1CN(c1ncc(C#N)s1)CCO2 (stereo not drawn) [Example 23, 2-[9-[1-(4-Amino-3-methyl-1H-pyrazolo[3,4-d]pyrimidin-1-yl)ethyl]-7-chloro-6-methyl-2,3-dihydro-1,4-benzoxazepin-4(5H)-yl]-1,3-thiazole-5-carbonitrile trifluoroacetate] | – | – | – | ≤ 100
Cc1c(Cl)cc(C(C)n2nc(C)c3c(N)ncnc32)c2c1CN(c1cnccn1)CCO2 (stereo not drawn) [Example 24, 1-[1-(7-Chloro-6-methyl-4-pyrazin-2-yl-2,3,4,5-tetrahydro-1,4-benzoxazepin-9-yl)ethyl]-3-methyl-1H-pyrazolo[3,4-d]pyrimidin-4-amine bis(trifluoroacetate)] | – | – | – | ≤ 100
Cc1c(Cl)cc(C(C)n2nc(C)c3c(N)ncnc32)c2c1C(=O)NCCO2 (stereo not drawn) [Example 25, 9-[1-(4-Amino-3-methyl-1H-pyrazolo[3,4-d]pyrimidin-1-yl)ethyl]-7-chloro-6-methyl-3,4-dihydro-1,4-benzoxazepin-5(2H)-one trifluoroacetate] | – | – | – | ≤ 100
